# In US20230310435A1, “HOST DEFENSE PROTEIN (HDP) MIMETICS FOR PROPHYLAXIS AND/OR TREATMENT OF INFLAMMATORY DISEASES OF THE GASTROINTESTINAL TRACT” (priority 2015, published 2023):
# Structures can show the parent of a compound that is named as a salt. Where two headings read alike, the source gives them in different places.
# How the values were obtained:
# [1] = system: LPS-induced MMP-9 release, NR8383 cells; test: LPS-induced MMP-9 release in NR8383 rat macrophages (ELISA); format: cell-based
# Description: Method for FIG. 9. […] After 8 hours, supernatants were collected for MMP9 measurement by ELISA using immunoassay kit (R&D Systems, Minneapolis, MN) according to manufacturer's instructions.
# The MMP-9 inhibition assay was performed according to the Method described for FIG. 9.
# (§1) PDE4 and PDE3 inhibition results in subsequent down-regulation of pro-inflammatory cytokines/chemokines and its regulators, and experiments were conducted to confirm such down-regulation by brilacidin in ex vivo cell-based assays. In these assays, cells were exposed to brilacidin 45 minutes before an 8-hour lipopolysaccharide (LPS) stimulation in the presence of brilacidin; cytokine/enzyme concentrations were determined by ELISA using a standard immunoassay kit.
# [2] = system: LPS-induced MCP-1 release, NR8383 cells; test: LPS-induced MCP-1 release in NR8383 rat macrophages (ELISA); format: cell-based
# Description: Method for FIG. 7. […] After 8 hours, supernatants were collected for MCP-1 measurement by ELISA. MCP-1 was measured using an immunoassay kit according to manufacturer's instructions (Thermo Scientific, Rockford. IL).
# Method for FIG. 8. MCP-1 assays were performed using PMX-60056. Rat macrophages (NR8383) were pretreated with […] with concentrations shown for 45 minutes, followed by 1 μg/ml LPS treatment from E. coli (Sigma, St. Louis, MO) for 8 hours. After 8 hours, supernatants were collected for MCP-1 measurement by ELISA. MCP-1 was measured using an immunoassay kit according to manufacturer's instructions (Thermo Scientific, Rockford, IL).
# The MCP-1 inhibition assay was performed according to the Method described for FIG. 7.
# The MCP-1 inhibition assay was performed according to the Method described for FIG. 8.
# as §1
# [3] = Plasma pharmacokinetics after IV or PO administration (Study 16009-12001); format: in vivo, male Balb/c mice; conditions: male mice; for Cmax: read-out: Cmax (peak concentration)
# From the text: Method for FIG. 11. […] The test article, PMX-30063, was corrected for salt form but no adjustment was made for purity. […] The resulting formulation was clear colorless solution (pH 7) and was stored at room temperature until administered. The formulated solution was clear and colorless until dosing was completed.
# A total of 60 male Balb/c mice, approximately 4-7 weeks of age at receipt with body weight of 18.0 g to 21.9 g were used in this study.
# Three mice in each group were used for blood at each time point at post-dose at 5 minutes, 15 minutes, 30 minutes, 1, 2, 4, 8, and 24 hours for Groups 1-2. Blood samples (at least 300 μL/sample) were collected via cardiac puncture after euthanasia by carbon dioxide inhalation at appropriate time points. Samples were placed in tubes containing K2-EDTA, and then centrifuged at approximately 8,000 rpm for 6 minutes at 4° C. and the resulting plasma were separated and stored frozen at approximately −80° C.
# The pharmacokinetic (PK) analysis were conducted by Medicilon Preclinical Research (Shanghai) LLC. The PK parameters were determined by the Study Director for the test article from mean concentration-time data in the test species. A non-compartmental module of WinNonlin™ Professional 5.2 was used to calculate parameters. Any BLQs (LLOQ=2.5 ng/mL for plasma and LLOQ=500 ng/g for small intestine) were replaced with a value of “0”, and the mean value and its standard deviation (SD) are calculated with these replaced values.
# Plasma samples (50 μL) were transferred to centrifuge tube, then 250 μL IS solution (50 ng/mL Carvedilol) was added to it. After vortexing for 1 minute and centrifuging for 5 minutes at 15,000 rpm, 100 μL aliquots of supernatant were transferred to glass autosampler vials.
# [4] = system: acetic acid-induced colitis; format: in vivo; conditions: for reduction of UC score: not significantly
# Description: (§2) Method for FIG. 14. […] Balb/c mice were fasted for 24 hours. Colitis was induced by injecting 200 μL of 4% acetic acid into the rectum. […] Another group of animals were treated with 5-ASA (5-aminosalicylic acid or mesalamine), and another received no treatment. Seven days after the first dose, five cm of intestine were cleaned in cold saline then weighed.
# as §2, with “15.” for “14.”, “dose the colon was examined visually for mucosal injury and scored according to the Table below.” for “dose, five cm of intestine were cleaned in cold saline then weighed.”
# Briefly, colitis was induced by injecting 4% acetic acid into the rectum.
# [5] = system: LPS-induced IL-1β release, NR8383 cells; test: LPS-induced IL-1β release in NR8383 rat alveolar macrophages (ELISA); format: cell-based; conditions: Macrophage, 8-hour brilacidin and LPS exposure, read-out: IC50, inhibition of LPS-induced IL-1β release
# Description: To examine the effect of brilacidin on the pro-inflammatory cytokine IL-1β production in cells, rat alveolar macrophage (NR8383) cells were pretreated with a range of brilacidin concentrations for 45 minutes, followed by treatment with 1 μg/ml LPS from E. coli (Sigma, St. Louis, MO) for 8 hours in the presence of brilacidin. After 8 hours, supernatants were collected for IL-1β measurement by ELISA. IL-1β was measured using an immunoassay kit according to manufacturer's instructions (Thermo Scientific, Rockford, IL).
# as §1
# [6] = system: Ulcerative Proctosigmoiditis/Ulcerative Proctitis (UP/UPS); test: Phase 2 clinical trial CTIX-BRI-206 in Ulcerative Proctitis/Ulcerative Proctosigmoiditis; format: in vivo, human
# Description: In a Phase 2 study (CTIX-BRI-206), clinical remission (with Endoscopic response) was achieved after 6 weeks of treatment in >50% subjects in each treatment cohort (50 mg, 100 mg, and 200 mg brilacidin, as daily retention enema) (FIG. 21, Panel A). Inflammatory biomarkers IL-1β and IL-6 were reduced in colonic tissue biopsies collected at Week 6 (Day 42) compared to those biopsies collected at baseline (FIG. 21, Panel B).
smiles,measurement,setting,value
"N=C(N)NCCCCC(=O)Nc1cc(C(F)(F)F)cc(NC(=O)c2cc(C(=O)Nc3cc(C(F)(F)F)cc(NC(=O)CCCCNC(=N)N)c3O[C@@H]3CCNC3)ncn2)c1O[C@@H]1CCNC1 [PMX-30063, N^4,N^6-bis(2-((R)-pyrrolidin-3-yloxy)-3-((4-carbamoylbutyl)guanidine)-5-(trifluoromethyl)phenyl)pyrimidine-4,6-dicarboxamide tetrahydrochloride salt]",IC50,"[1]; Rattus norvegicus, Macrophage, NR8383 cells, ELISA, 45 min pretreatment, 8-hour LPS, read-out: IC50, inhibition of LPS-induced MMP-9 release",2300 nM
same,decrease in MMP-9 levels,"[1]; at 12.5 μM, NR8383, LPS 1 μg/ml 8 h",50%
same,effect on MCP-1 induction after LPS stimulation (in words),"[2]; NR8383, 45 min pretreatment, LPS 1 μg/ml 8 h",strong inhibition
same,IC50,"[2]; Rattus norvegicus, Macrophage, NR8383 cells, ELISA, 45 min pretreatment, 8-hour LPS, read-out: IC50, inhibition of LPS-induced MCP-1 release",750 nM
same,decrease in MCP-1 levels,"[2]; at 0.5 μM, NR8383, LPS 1 μg/ml 8 h",≥ 25%
same,AUC(0-inf),"[3]; Balb/c, mouse, IV 5 mg/kg",97800 ng·h/mL
same,AUC(0-t),"[3]; Balb/c, mouse, IV 5 mg/kg",97700 ng·h/mL
same,Tmax,"[3]; Balb/c, mouse, IV 5 mg/kg",0.083 h
same,clearance,"[3]; Balb/c, mouse, IV 5 mg/kg",0.852 mL/min/kg
same,half-life,"[3]; Balb/c, mouse, IV 5 mg/kg",2.76 h
same,Cmax,"[3]; Balb/c, mouse, IV 5 mg/kg",48400 ng/mL
same,Vd,"[3]; Balb/c, mouse, IV 5 mg/kg, read-out: Vz",0.204 L/kg
same,AUC(0-inf),"[3]; Balb/c, mouse, PO 10 mg/kg",113 ng·h/mL
same,AUC(0-t),"[3]; Balb/c, mouse, PO 10 mg/kg",111 ng·h/mL
same,Tmax,"[3]; Balb/c, mouse, PO 10 mg/kg",2 h
same,half-life,"[3]; Balb/c, mouse, PO 10 mg/kg",1.26 h
same,Cmax,"[3]; Balb/c, mouse, PO 10 mg/kg",33.7 ± 8.56 ng/mL
same,MRT(0-∞),[3]; IV 5 mg/kg,2.86 H
same,F*,[3]; PO 10 mg/kg vs IV 5 mg/kg,0.0579%
same,MRT(0-∞),[3]; PO 10 mg/kg,2.68 H
same,reduction of UC score,[4]; 40 mg/kg (so in the source) intrarectally,67%
same,reduction of median UC score,[4]; 100 mg/kg intrarectally,33%
same,reduction of UC score,[4]; 200 mg/kg intrarectally,67%
same,reduction of intestine weights compared to untreated controls,[4]; 400 mg/kg intrarectally,17%
same,ulcerative colitis score compared to untreated controls (in words),[4]; 400 mg/kg intrarectally,significantly reduced
same,tolerability (in words),"[4]; mouse, in vivo",well-tolerated
same,ulcerative colitis score (in words),"[4]; rectal administration, 100, 200, 400 mg/kg",dose dependent decrease
same,intestine weights compared to untreated controls (in words),"[4]; rectal administration, 100-400 mg/kg once daily","reduced, but not significantly"
same,IC50,[5],702 nM
same,IL-1β in colonic tissue biopsies vs baseline (in words),[6]; Week 6 (Day 42),reduced
same,IL-6 in colonic tissue biopsies vs baseline (in words),[6]; Week 6 (Day 42),reduced
same,subjects achieving clinical remission (with Endoscopic response),"[6]; after 6 weeks, each cohort (50 mg, 100 mg, 200 mg, daily retention enema)",> 50%
